This is an account of results in publication PMC9106635, “Stimulation of the atypical chemokine receptor 3 (ACKR3) by a small-molecule agonist attenuates fibrosis in a preclinical liver but not lung injury model” (Cellular and Molecular Life Sciences: CMLS, 2022).

Series [1] has as its target T1, hCXCR4 (Homo sapiens, UniProt P61073). As to the kind of experiment: CXCL12^AF647 competition binding, Jurkat cells. On the procedure:
(§1) Binding affinity to human (h)CXCR4 and human (h)ACKR3 was investigated with a competition binding assay using CXCL12^AF647 (Almac, UK) as the tracer molecule. Jurkat cells (human T lymphocytic cell line, hCXCR4 positive) or U87.CD4.ACKR3 cells (human glioblastoma cell line, hACKR3 positive) were resuspended in assay buffer [Hank’s Balanced Salt Solution (HBSS, Thermo Fisher Scientific), 20 mM HEPES buffer, 0.2% bovine serum albumin (Sigma-Aldrich), pH 7.4] at 3 × 10^5 cells per sample and treated with increasing concentrations of compound at RT for 15 min. A fixed amount of CXCL12^AF647 (2.9 nM and 1.45 nM in case of hCXCR4 and hACKR3, respectively) was added and cells were incubated at RT for 30 min protected from light. Cells were finally fixed in 1% paraformaldehyde in DPBS and the CXCL12^AF647 binding signal [i.e., mean fluorescence intensity (MFI)] was quantified by flow cytometry (FACSCanto™; Becton Dickinson). Data were analyzed with FlowJo® Software. For all samples the background MFI (i.e., autofluorescence of untreated and unlabeled cells) was subtracted. The percentage inhibition for each compound concentration was calculated relative to the positive control (i.e., untreated cells exposed to CXCL12^AF647 only). Four parameter non-linear curve fitting (GraphPad Prism 9.0.2) was used to determine the IC50 value for binding inhibition.

In series [2] the target is T1, hCXCR4. Put plainly: Ca2+ mobilization assay, U87.CD4.CXCR4 cells, CXCL12-induced. The format is cell-based. Also on record: expressed in transfected cells; host or cells: U87.CD4.CXCR4. Conditions: antagonism of CXCL12 response. As for the experimental part: The calcium (Ca^2+) mobilization assay was described in detail before. Briefly, U87.CD4.CXCR4 or U87.CD4.CCR5 cells (2 × 10^4 cells per well in DMEM/10% FBS/0.01 M HEPES) were seeded in gelatin-coated (Sigma-Aldrich; 0.1% gelatin in DPBS) black-walled 96-well plates and incubated overnight at 37 °C and 5% CO2. The next day, cells were loaded with the fluorescent Ca^2+ indicator Fluo-2 acetoxymethyl (AM) ester (4 μM final concentration; Abcam) and incubated at RT in the dark for 45 min. Then, cells were washed with assay buffer (see above) and subsequently incubated with different concentrations of compound for ~ 10 min prior to addition of 6.25 nM CXCL12 (in case of CXCR4) or 6.4 nM CCL5 (in case of CCR5). Fluctuations in intracellular Ca^2+ levels were measured in real time by the FLIPR Tetra® device (Molecular Devices) in all 96 wells simultaneously. The response (Relative Light Units, RLUs) over baseline was calculated (ScreenWorks 4.0® software, Molecular Devices) by dividing the RLUs by a base line value measured just before addition of CXCL12 or CCL5, respectively. Inhibition of the Ca^2+ response was determined taking into account negative (i.e., untreated cells without stimulation) and positive (i.e., untreated cells stimulated with either CXCL12 or CCL5) control samples.

On the set-up of series [3]: method as in PMID 29627981. Conditions: mice; cited from earlier work.
On the set-up of series [4]: method as in PMID 29627981. Conditions: cited from earlier work.
For series [5], the target named is T2, hACKR3 (Homo sapiens, UniProt P25106). As to the kind of experiment: CXCL12^AF647 competition binding, U87.CD4.ACKR3 cells. As for the experimental part: as §1
Series [6] deals with T2, hACKR3. As to the kind of experiment: β-arrestin2 recruitment assay (PathHunter CHO-K1 CXCR7 β-arrestin cell line). The format is cell-based. On the set-up: host or cells: CHO-K1 (PathHunter CXCR7 β-arrestin cell line). As for the experimental part: β-arrestin2 recruitment downstream of ACKR3 activation was analyzed using the PathHunter CHO-K1 CXCR7 β-arrestin Cell Line (93-0248C2; DiscoverX). Cells were cultured in AssayComplete™ Cell Culture Kit-107 (92-3107G; DiscoverX) at 37 °C and 5% CO2. Briefly, 20,000 cells/well were seeded in AssayComplete™ Cell Plating 2 Reagent (93-0563R2A; DiscoverX) in a white 96-well plate (100 µL/well) with clear bottom (Costar, 3610) and incubated overnight at 37 °C and 5% CO2. The next day, 10 µL/well of test compound (11 × concentrated) was added and cells were incubated for 90 min at 37 °C and 5% CO2. Compounds were tested in duplicate in a 1:4 dilution series ranging from 1000 nM to 0.06 nM final concentration. After incubation, 55 µL/well of detection reagent (PathHunter Detection kit; 93-0001; DiscoverX) was added and cells were incubated for 1 h at room temperature (RT) protected from light. Finally, luminescence was measured using a FLIPR Tetra® device (Molecular Devices, Sunnyvale, CA, USA). Four parameter non-linear curve fitting (GraphPad Prism 9.0.2) was used to determine the EC50 value for β-arrestin2 recruitment.

Series [7] relates to CCl4-induced liver fibrosis in C57BL/6J mice. Put plainly: CCl4-induced liver fibrosis model. The format is in vivo, mouse. To be noted: 15 mg/kg/dose SC BID. On the procedure:
A preclinical mouse model for CCl4-induced liver fibrosis was performed at the Department of Metabolic Health Research, The Netherlands Organisation for Applied Scientific Research (TNO) (Leiden, The Netherlands). Fifty-two male C57BL/6J mice were matched on body weight prior to the study and divided into five groups (experimental study design, Supplementary Figure S1a). Starting at day 0, 10–12-week-old mice were intraperitoneally (i.p.) injected (three times a week) with mineral oil (group 1) or CCl4 (15% v/v in mineral oil, group 2–5) for a total of 28 days. At day 0, mice received subcutaneous treatment with compound 18a (15 mg/kg/dose, twice daily (BID), group 3), or corresponding vehicle control (23% HPBCD, twice daily (BID), groups 1 and 2)], or received daily gavage with either an ALK5/ALK4 kinase inhibitor [SM 16 (45 mg/kg/dose, PO, QD, group 5) or its corresponding vehicle control (β-cyclodextrin sulfobutyl ether sodium salt or captisol, PO, QD, group 4)]. Plasma samples were collected by a tail vein bleed at day 7. At day 28, mice were sacrificed using CO2 and additional plasma samples and liver lobes were collected. As a primary endpoint collagen surface area was determined on cross-sections of the lateral left lobe by picro sirius red (PSR) staining. As a secondary endpoint collagen content (hydroxyproline) of the left median lobe was analyzed using a chromogenic assay according to the manufacturer’s instructions (QuickZyme Biosciences, Leiden, The Netherlands).

Like-named read-outs stand apart in the source and are kept apart here.

T2 sequence (P25106 whole entry): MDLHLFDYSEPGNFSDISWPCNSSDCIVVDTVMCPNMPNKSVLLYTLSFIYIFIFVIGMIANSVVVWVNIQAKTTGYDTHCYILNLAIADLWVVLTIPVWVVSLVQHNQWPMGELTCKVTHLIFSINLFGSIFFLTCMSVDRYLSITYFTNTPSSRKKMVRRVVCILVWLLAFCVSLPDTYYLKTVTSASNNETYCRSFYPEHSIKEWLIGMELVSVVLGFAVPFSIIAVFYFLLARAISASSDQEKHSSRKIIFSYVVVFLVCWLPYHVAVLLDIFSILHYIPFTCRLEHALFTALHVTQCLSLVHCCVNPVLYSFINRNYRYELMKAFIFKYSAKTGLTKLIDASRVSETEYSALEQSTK
T1 sequence (P61073 whole entry): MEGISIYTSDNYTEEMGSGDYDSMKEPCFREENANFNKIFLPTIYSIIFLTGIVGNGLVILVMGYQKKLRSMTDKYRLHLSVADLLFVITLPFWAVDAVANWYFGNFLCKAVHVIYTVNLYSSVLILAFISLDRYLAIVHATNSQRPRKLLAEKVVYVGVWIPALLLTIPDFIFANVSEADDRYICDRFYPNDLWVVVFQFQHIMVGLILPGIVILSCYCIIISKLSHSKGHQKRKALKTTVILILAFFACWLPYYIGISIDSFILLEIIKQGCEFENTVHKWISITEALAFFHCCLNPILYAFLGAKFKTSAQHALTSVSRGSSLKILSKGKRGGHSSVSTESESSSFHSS

Take `CCc1ccn2ccnc2c1N1CCCN(C(CC(N)=O)C2CCN(C(=O)C3CC4CCC3O4)CC2)CC1` (stereo not drawn) [compound 18a]: the IC50 in series [1] is over 4000 nM; in series [2], over 40000 nM; in series [5] (hACKR3, mean ± SD of three independent experiments) it was 20.5 ± 6.34 nM. Further, the oral bioavailability entry in series [3] is “not orally bioavailable”. Also, the “free fraction in mouse plasma” value in series [4] was 34%. The “higher hACKR3 binding affinity compared to compound 18b” value in series [5] (ratio of IC50 values) was “five-fold”. The EC50 in series [6] (conversion of 3.16 nM, read-out: EC50 β-arrestin2 recruitment expressed in ng/mL (converted)) was 3.25 nM; in series [6] (mean ± SD of two independent experiments, read-out: EC50 β-arrestin2 recruitment) it was 3.16 ± 0.12 nM; in series [6] (taking into account 34% free fraction, read-out: EC50 corrected for free fraction in mouse plasma (target value) (converted)), 9.95 nM. In addition, the “liver weight per body weight” value in series [7] (CCl4-treated mice, day 28) was “not affected by compound 18a treatment”. Further, the “collagen levels by PSR staining” value in series [7] (day 28, vs CCl4 + 23% HPBCD, P = 0.04) is reported as “modestly, but significantly, reduced collagen levels”. Besides, the “hydroxyproline levels in liver” value in series [7] (day 28, vs CCl4 + 23% HPBCD, P = 0.06) was “near significant reduction of hydroxyproline levels”.
